In patent publication US20170362283A1, “NISIN-BASED COMPOUNDS AND USE THEREOF IN THE TREATMENT OF BACTERIAL INFECTIONS” (UNIVERSITEIT UTRECHT HOLDING B.V., priority 2015, published 2017):
In brackets after ≈: the same amount, converted by molar mass.

Assays:
Conditions in all cases: duplicate experiments
MRSA USA300 = format: cell-based, Staphylococcus aureus
Procedure: (§1) Determining the MIC value is a standard technique well known to the skilled person, in particular the MIC value can be measured using method M07-A9 (CLSI standard, January 2012, Vol. 32, No. 2, “Methods for Dilution Antimicrobial Susceptibility Tests for Bacteria That Grow Aerobically”).
(§2) Different microorganisms (from glycerol stock) were plated out on blood agar and incubated at 37° C. for 24 hours. A colony was selected and 2×5 mL of TSB was inoculated. The samples and a sterile control were cultured for 16-20 hours at 37° C. Comparative compound B is nisin acting as a control. Comparative compound C is vancomycin, also acting as a control. Comparative compounds A, D and E are also control compounds not part of the present invention.
(§3) The overnight cultures were diluted to 0.5×10^6 CFU in TSB. 50 μL of the bacterial solution was added to each well and the plates were sealed with an adhesive membrane and incubated at 37° C. for 16 hours. The next day, the plates were visually inspected for bacterial growth.

VRE 155 = format: cell-based
Procedure: as §1, §2, §3

B. subtilis = tested on: B. subtilis
Procedure: as §1
as §2, with “Comparative compound C is vancomycin, also acting as a control.” left out
as §3

E. coli = tested on: E. coli
Procedure: as §1
as §2, with “Comparative compound C is vancomycin, also acting as a control.” left out
as §3

S. aureus = tested on: S. aureus
Procedure: as §1
as §2, with “Comparative compound C is vancomycin, also acting as a control.” left out
as §3

| SMILES | MIC values MRSA USA300 (MRSA USA300) [µg/mL] | MIC values VRE 155 (VRE 155) [µg/mL] | MIC values B. subtilis (B. subtilis) [µg/mL] | MIC values E. coli (E. coli) [µg/mL] | MIC values S. aureus (S. aureus) [µg/mL] |
| --- | --- | --- | --- | --- | --- |
| C=C1NC(=O)[C@H]([C@@H](C)CC)NC(=O)[C@H](NC(=O)C(=CC)NC(=O)[C@@H](NC(=O)CCN)[C@@H](C)CC)CSC[C@@H](C(=O)N[C@H]2C(=O)N3CCC[C@H]3C(=O)NCC(=O)N[C@H](C(=O)N[C@@H](CCCCNC(=O)CCN)C(=O)NCCCCCCCCCCCC)CS[C@H]2C)NC(=O)[C@H](CC(C)C)NC1=O [(22)] | 16 (≈ 11 µM) | 8 (≈ 5.48 µM) | – | – | – |
| C=C1NC(=O)[C@H]([C@@H](C)CC)NC(=O)[C@H](NC(=O)C(=CC)NC(=O)[C@@H](N)[C@@H](C)CC)CSC[C@@H](C(=O)N[C@H]2C(=O)N3CCC[C@H]3C(=O)NCC(=O)N[C@H](C(=O)N[C@@H](CCCCN)C(=O)NCCCCCCCCCCCC)CS[C@H]2C)NC(=O)[C@H](CC(C)C)NC1=O [(8)] | 4 (≈ 3.04 µM) | 2 (≈ 1.52 µM) | 4 (≈ 3.04 µM) | >64 | 4 to 8 |
| C=C1NC(=O)[C@H]([C@@H](C)CC)NC(=O)[C@H](NC(=O)C(=CC)NC(=O)[C@@H](N)[C@@H](C)CC)CSC[C@@H](C(=O)N[C@H]2C(=O)N3CCC[C@H]3C(=O)NCC(=O)N[C@H](C(=O)N[C@@H](CCCCNC(=O)CCCCCCCC)C(=O)NC)CS[C@H]2C)NC(=O)[C@H](CC(C)C)NC1=O [(19)] | 32 (≈ 24.5 µM) | 8 (≈ 6.14 µM) | – | – | – |
| C=C1NC(=O)[C@H]([C@@H](C)CC)NC(=O)[C@H](NC(=O)C(=CC)NC(=O)[C@@H](N)[C@@H](C)CC)CSC[C@@H](C(=O)N[C@H]2C(=O)N3CCC[C@H]3C(=O)NCC(=O)N[C@H](C(=O)N[C@@H](CCCCN)C(=O)N[C@@H](Cc3ccccc3)C(=O)NCCCCCCCCCC)CS[C@H]2C)NC(=O)[C@H](CC(C)C)NC1=O [(16)] | 8 (≈ 5.57 µM) | 2 (≈ 1.39 µM) | 4 (≈ 2.78 µM) | >64 | 8 (≈ 5.57 µM) |
| C=C1NC(=O)[C@H]([C@@H](C)CC)NC(=O)[C@H](NC(=O)C(=CC)NC(=O)[C@@H](N)[C@@H](C)CC)CSC[C@@H](C(=O)N[C@H]2C(=O)N3CCC[C@H]3C(=O)NCC(=O)N[C@H](C(=O)N[C@@H](CCCCN)C(=O)NCCCCCCCC)CS[C@H]2C)NC(=O)[C@H](CC(C)C)NC1=O [(4)] | 64 (≈ 50.7 µM) | 16 (≈ 12.7 µM) | – | – | – |
| C=C1NC(=O)[C@H]([C@@H](C)CC)NC(=O)[C@H](NC(=O)C(=CC)NC(=O)[C@@H](N)[C@@H](C)CC)CSC[C@@H](C(=O)N[C@H]2C(=O)N3CCC[C@H]3C(=O)NCC(=O)N[C@H](C(=O)N[C@@H](CCCCN)C(=O)N[C@@H](Cc3c[nH]c4ccccc34)C(=O)NCCCCCCCCCC)CS[C@H]2C)NC(=O)[C@H](CC(C)C)NC1=O [(15)] | 8 (≈ 5.42 µM) | 2 (≈ 1.36 µM) | 4 (≈ 2.71 µM) | >64 | 8 (≈ 5.42 µM) |
| C=C1NC(=O)[C@H]([C@@H](C)CC)NC(=O)[C@H](NC(=O)C(=CC)NC(=O)[C@@H](N)[C@@H](C)CC)CSC[C@@H](C(=O)N[C@H]2C(=O)N3CCC[C@H]3C(=O)NCC(=O)N[C@H](C(=O)N[C@@H](CCCCN)C(=O)NCCCCCCCCCCCCC)CS[C@H]2C)NC(=O)[C@H](CC(C)C)NC1=O [(9)] | 4 (≈ 3 µM) | 2 (≈ 1.5 µM) | 4 (≈ 3 µM) | >64 | 8 (≈ 6.01 µM) |
| C=C1NC(=O)[C@H]([C@@H](C)CC)NC(=O)[C@H](NC(=O)C(=CC)NC(=O)[C@@H](N)[C@@H](C)CC)CSC[C@@H](C(=O)N[C@H]2C(=O)N3CCC[C@H]3C(=O)NCC(=O)N[C@H](C(=O)N[C@@H](CCCCN)C(=O)NCCCCCCCCC)CS[C@H]2C)NC(=O)[C@H](CC(C)C)NC1=O [(5)] | 32 (≈ 25.1 µM) | 8 to 16 | 8 (≈ 6.27 µM) | 64 (≈ 50.2 µM) | 16 (≈ 12.5 µM) |
| C=C1NC(=O)[C@H]([C@@H](C)CC)NC(=O)[C@H](NC(=O)C(=CC)NC(=O)[C@@H](N)[C@@H](C)CC)CSC[C@@H](C(=O)N[C@H]2C(=O)N3CCC[C@H]3C(=O)NCC(=O)N[C@H](C(=O)N[C@@H](CCCCN)C(=O)NCCCN=[N+]=[N-])CS[C@H]2C)NC(=O)[C@H](CC(C)C)NC1=O [E, Nisin [1-12]-azide, reference compound] | – | – | >128 | >128 | >128 |
| C=C1NC(=O)[C@H]([C@@H](C)CC)NC(=O)[C@H](NC(=O)C(=CC)NC(=O)[C@@H](N)[C@@H](C)CC)CSC[C@@H](C(=O)N[C@H]2C(=O)N3CCC[C@H]3C(=O)NCC(=O)N[C@H](C(=O)N[C@@H](CCCCN)C(=O)NCCCCCCCCCCC)CS[C@H]2C)NC(=O)[C@H](CC(C)C)NC1=O [(7)] | 16 (≈ 12.3 µM) | 4 (≈ 3.07 µM) | 4 (≈ 3.07 µM) | >64 | 8 (≈ 6.14 µM) |
| C=C1NC(=O)[C@H]([C@@H](C)CC)NC(=O)[C@H](NC(=O)C(=CC)NC(=O)[C@@H](N)[C@@H](C)CC)CSC[C@@H](C(=O)N[C@H]2C(=O)N3CCC[C@H]3C(=O)NCC(=O)N[C@H](C(=O)N[C@@H](CCCCN)C(=O)N[C@@H](Cc3ccc(O)cc3)C(=O)NCCCCCCCCCC)CS[C@H]2C)NC(=O)[C@H](CC(C)C)NC1=O [(18)] | 8 (≈ 5.51 µM) | 2 (≈ 1.38 µM) | 4 (≈ 2.75 µM) | >64 | 4 to 8 |
| C=C1NC(=O)[C@H]([C@@H](C)CC)NC(=O)[C@H](NC(=O)C(=CC)NC(=O)[C@@H](N)[C@@H](C)CC)CSC[C@@H](C(=O)N[C@H]2C(=O)N3CCC[C@H]3C(=O)NCC(=O)N[C@H](C(=O)N[C@@H](CCCCN)C(=O)NCCC[N+](C)(C)CCCCCCCCCC)CS[C@H]2C)NC(=O)[C@H](CC(C)C)NC1=O [(14)] | 8 | 4 | 4 | >64 | 4 |
| C=C1NC(=O)[C@H]([C@@H](C)CC)NC(=O)[C@H](NC(=O)C(=CC)NC(=O)[C@@H](N)[C@@H](C)CC)CSC[C@@H](C(=O)N[C@H]2C(=O)N3CCC[C@H]3C(=O)NCC(=O)N[C@H](C(=O)N[C@@H](CCCCN)C(=O)N[C@@H](Cc3c[nH]cn3)C(=O)NCCCCCCCCCC)CS[C@H]2C)NC(=O)[C@H](CC(C)C)NC1=O [(17)] | 8 (≈ 5.61 µM) | 4 (≈ 2.8 µM) | – | – | – |
| C=C1NC(=O)[C@H]([C@@H](C)CC)NC(=O)[C@H](NC(=O)C(=CC)NC(=O)[C@@H](N)[C@@H](C)CC)CSC[C@@H](C(=O)N[C@H]2C(=O)N3CCC[C@H]3C(=O)NCC(=O)N[C@H](C(=O)N[C@@H](CCCCN)C(=O)NCc3ccc(-c4ccc(Cl)cc4)cc3)CS[C@H]2C)NC(=O)[C@H](CC(C)C)NC1=O [(13)] | 8 (≈ 5.93 µM) | 4 (≈ 2.96 µM) | 2 to 4 | – | – |
| C=C1NC(=O)[C@H]([C@@H](C)CC)NC(=O)[C@H](NC(=O)C(=CC)NC(=O)[C@@H](N)[C@@H](C)CC)CSC[C@@H](C(=O)N[C@H]2C(=O)N3CCC[C@H]3C(=O)NCC(=O)N[C@H](C(=O)N[C@@H](CCCCN)C(=O)NC)CS[C@H]2C)NC(=O)[C@H](CC(C)C)NC1=O [D, reference compound] | – | – | >128 | >128 | >128 |
| C=C1NC(=O)[C@H]([C@@H](C)CC)NC(=O)[C@H](NC(=O)C(=CC)NC(=O)[C@@H](N)[C@@H](C)CC)CSC[C@@H](C(=O)N[C@H]2C(=O)N3CCC[C@H]3C(=O)NCC(=O)N[C@H](C(=O)N[C@@H](CCCCN)C(=O)NCCCCCCC)CS[C@H]2C)NC(=O)[C@H](CC(C)C)NC1=O [(3)] | 64 (≈ 51.3 µM) | 8 (≈ 6.41 µM) | 16 (≈ 12.8 µM) | >64 | 64 (≈ 51.3 µM) |
| C=C1NC(=O)[C@H]([C@@H](C)CC)NC(=O)[C@H](NC(=O)C(=CC)NC(=O)[C@@H](N)[C@@H](C)CC)CSC[C@@H](C(=O)N[C@H]2C(=O)N3CCC[C@H]3C(=O)NCC(=O)N[C@H](C(=O)N[C@@H](CCCCN)C(=O)NCCCCCCCCCCCCCCC)CS[C@H]2C)NC(=O)[C@H](CC(C)C)NC1=O [(11)] | 64 (≈ 47.1 µM) | 8 (≈ 5.88 µM) | 8 (≈ 5.88 µM) | >64 | 32 (≈ 23.5 µM) |
| C=C1NC(=O)[C@H]([C@@H](C)CC)NC(=O)[C@H](NC(=O)C(=CC)NC(=O)[C@@H](N)[C@@H](C)CC)CSC[C@@H](C(=O)N[C@H]2C(=O)N3CCC[C@H]3C(=O)NCC(=O)N[C@H](C(=O)N[C@@H](CCCCNC(=O)CCN)C(=O)NCCCCCCCCCCCC)CS[C@H]2C)NC(=O)[C@H](CC(C)C)NC1=O [(21)] | 8 (≈ 5.76 µM) | 4 (≈ 2.88 µM) | – | – | – |
